The values below come from US20080171760A1, “SPIROPIPERIDINE GLYCINAMIDE DERIVATIVES” (priority 2007, published 2008).

In this assay the target is T1, human V1a receptor (Homo sapiens, UniProt P37288).
T1 construct: expressed in transfected cells; host or cells: HEK293 cells, transiently transfected; cell membranes
T1 sequence (P37288 whole entry): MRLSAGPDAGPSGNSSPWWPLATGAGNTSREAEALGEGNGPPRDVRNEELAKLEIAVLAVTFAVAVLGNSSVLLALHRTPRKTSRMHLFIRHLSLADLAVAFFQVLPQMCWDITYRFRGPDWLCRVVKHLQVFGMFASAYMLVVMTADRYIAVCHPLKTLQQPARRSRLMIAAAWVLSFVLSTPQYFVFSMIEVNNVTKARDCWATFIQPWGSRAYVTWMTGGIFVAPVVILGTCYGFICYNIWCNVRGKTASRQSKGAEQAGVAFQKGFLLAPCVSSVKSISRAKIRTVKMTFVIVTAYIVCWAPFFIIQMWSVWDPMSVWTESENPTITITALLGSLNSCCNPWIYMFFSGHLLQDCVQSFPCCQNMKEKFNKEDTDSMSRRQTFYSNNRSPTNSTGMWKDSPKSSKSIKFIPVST
The experiment in a line: human V1a receptor binding study (3H-Vasopressin, SPA beads). To be noted: membranes of HEK293 cells transiently transfected with human V1a receptor, Ki calculated using the Cheng-Prussoff equation, read-out: pKi hV1a (converted). Here is the method:
The human V1a receptor was cloned by RT-PCR from total human liver RNA. The coding sequence was subcloned in an expression vector after sequencing to confirm the identity of the amplified sequence. […] Cell membranes were prepared from HEK293 cells transiently transfected with the expression vector and grown in 20 liter fermenters with the following protocol.
50 g of cells were resuspended in 30 ml freshly prepared ice cold Lysis buffer (50 mM HEPES, 1 mM EDTA, 10 mM MgCl2 adjusted to pH=7.4+complete cocktail of protease inhibitor (Roche Diagnostics)), homogenized with Polytron for 1 min, and sonicated on ice for 2×2 minutes at 80% intensity (Vibracell sonicator). The preparation was centrifuged 20 min at 500 g at 4° C., the pellet was discarded and the supernatant centrifuged 1 hour at 43,000 g at 4° C. (19,000 rpm). The pellet was resuspended in 12.5 ml Lysis buffer+12.5 ml Sucrose 20% and homogenized using a Polytron for 1-2 min. The protein concentration was determined by the Bradford method and aliquots are stored at −80° C. until use. For binding studies 60 mg Yttrium silicate SPA beads (Amersham) were mixed with an aliquot of membrane in binding buffer (50 mM Tris, 120 mM NaCl, 5 mM KCl, 2 mM CaCl2, 10 mM MgCl2) for 15 minutes with mixing. 50 ul of bead/membrane mixture was then added to each well of a 96 well plate, followed by 50 ul of 4 nM 3H-Vasopressin (American Radiolabeled Chemicals). For total binding measurement 100 ul of binding buffer were added to the respective wells, for non-specific binding 100 ul of 8.4 mM cold vasopressin and for compound testing 100 ul of a serial dilution of each compound in 2% DMSO. The plate was incubated 1 h at room temperature, centrifuged 1 min at 1000 g and counted on a Packard Top-Count. Non-specific binding counts were subtracted from each well and data was normalized to the maximum specific binding set at 100%. To calculate an IC 50 the curve was fitted using a non-linear regression model (XLfit) and the Ki is calculated using the Cheng-Prussoff equation.
On to `O=C(Nc1ccc(Cl)cc1)[C@H](NCC(=O)N1CCC2(CC1)OCc1ccccc12)c1ccccc1` [Example 31, (2R)—N-(4-Chlorophenyl)-2-{[2-oxo-2-(1′H,3H-spiro[2-benzofuran-1,4′-piperidin]-1′-yl)ethyl]amino}-2-phenylacetamide], for which the Ki is 0.0427 µM. For `O=C(CNC(c1ccccc1)c1cc(Cl)ccc1O)N1CCC2(CC1)OCc1ccccc12` (racemic) [Example 37, (RS)-4-Chloro-2-[{[2-oxo-2-(1′H,3H-spiro[2-benzofuran-1,4′-piperidin]-1′yl)ethyl]amino}(phenyl)methyl]phenol], the Ki is 0.0145 µM. As for `O=C(CNC(c1ccccc1)c1ccccc1)N1CCC2(CC1)OCc1ccccc12` [Example 6, N-(Diphenylmethyl)-2-oxo-2-(1′H,3H-spiro[2-benzofuran-1,4′-piperidin]-1′-yl)ethanamine], the Ki was 0.0117 µM.

Take `O=C(CNC(c1ccccc1)c1cccc(Cl)c1)N1CCC2(CC1)OCc1ccccc12` (racemic) [Example 8, (RS)—N-[(3-Chlorophenyl)(phenyl)methyl]-2-oxo-2-(1′H,3H-spiro[2-benzofuran-1,4′-piperidin]-1′-yl)ethanamine]: the Ki was 0.0148 µM.

On to `C[C@](O)(c1ccccn1)[C@H](NCC(=O)N1CCC2(CC1)OCc1ccccc12)c1ccc(Cl)cc1` (racemic) [Example 49, (1RS,2RS)-1-(4-Chlorophenyl)-1-{[2-oxo-2-(1′H,3H-spiro[2-benzofuran-1,4′-piperidin]-1′-yl)ethyl]amino}-2-pyridin-2-yl-propan-2-ol], for which the Ki is 0.0186 µM. As for `O=C(CN[C@@H](c1ccccc1)c1ccc(Cl)cc1)N1CCC2(CC1)OCc1ccccc12` (single isomer, unassigned) [Example 4, N-[(+)-(4-chlorophenyl)(phenyl)methyl]-2-oxo-2-(1′H,3H-spiro[2-benzofuran-1,4′-piperidin]-1′-yl)ethanamine], the figure is 0.0204 µM; as for `O=C(CNC(c1ccccc1)c1cccs1)N1CCC2(CC1)OCc1ccccc12` (racemic) [Example 20, (RS)-2-Oxo-N-[phenyl(2-thienyl)methyl]-2-(1′H,3H-spiro[2-benzofuran-1,4′-piperidin]-1′-yl)ethanamine], 0.00912 µM; as for `O=C(CNC(c1cccc(Cl)c1)c1ncco1)N1CCC2(CC1)OCc1ccccc12` (racemic) [Example 68, (RS)—N-[(3-Chlorophenyl) (1,3-oxazol-2-yl)methyl]-2-oxo-2-(1′H,3H-spiro [2-benzofuran-1,4′-piperidin]-1′-yl)ethanamine], 0.00851 µM.

For `O=C(CNC(c1ccc(F)cc1)c1cccs1)N1CCC2(CC1)OCc1ccccc12` (racemic) [Example 29, (RS)—N-[(4-Fluorophenyl)(2-thienyl)methyl]-2-oxo-2-(1′H,3H-spiro[2-benzofuran-1,4′-piperidin]-1′-yl)ethanamine], the Ki is 0.0158 µM. Turning to `O=C(CNC(c1ccccc1)c1ccc(Cl)c(Cl)c1)N1CCC2(CC1)OCc1ccccc12` (racemic) [Example 9, (RS)—N-[(3,4-Dichlorophenyl)(phenyl)methyl]-2-oxo-2-(1′H,3H-spiro[2-benzofuran-1,4′-piperidin]-1′-yl)ethanamine], the Ki is 0.0145 µM. As for `O=C(CNC(c1ccc(F)cc1)c1cccc(C(F)(F)F)c1)N1CCC2(CC1)OCc1ccccc12` (racemic) [Example 13, (RS)—N-{(4-Fluorophenyl)[3-(trifluoromethyl)phenyl]methyl}-2-oxo-2-(1′H,3H-spiro[2-benzofuran-1,4′-piperidin]-1′-yl)ethanamine], the figure is 0.0295 µM; as for `CC(O)(c1ccncc1)C(NCC(=O)N1CCC2(CC1)OCc1ccccc12)c1ccc(Cl)cc1` (stereo not shown) [Example 52, 1-(4-Chlorophenyl)-1-{[2-oxo-2-(1′H,3H-spiro[2-benzofuran-1,4-piperidin]-1′-yl)ethyl]amino}-2-pyridin-4-ylpropan-2-ol], 0.0263 µM. Regarding `CN(CC(=O)N1CCC2(CC1)OCc1ccccc12)C(c1ccccc1)c1ccccc1` [Example 93, N-(Diphenylmethyl)-N-methyl-2-oxo-2-(1′H,3H-spiro[2-benzofuran-1,4′-piperidin]-1′-yl)ethanamine], the Ki is 0.0282 µM. As for `Cc1n[nH]c(C)c1C(NCC(=O)N1CCC2(CC1)OCc1ccccc12)c1ccccc1` (racemic) [Example 30, (RS)—N-[(3,5-Dimethyl-1H-pyrazol-4-yl)(phenyl)methyl]-2-oxo-2-(1′H,3H-spiro[2-benzofuran-1,4′-piperidin]-1′-yl)ethanamine], the figure is 0.0234 µM; as for `O=C(CNC(c1ccccc1)c1ccc(C(F)(F)F)cc1)N1CCC2(CC1)OCc1ccccc12` (racemic) [Example 18, (RS)-2-Oxo-N-{phenyl[4-(trifluoromethyl)phenyl]methyl}-2-(1′H,3H-spiro[2-benzofuran-1,4′-piperidin]-1′-yl)ethanamine], 0.0209 µM.

As for `O=C(CN[C@H](c1ccc(Cl)cc1)[C@@H](O)c1ccc(N2CCOCC2)cc1)N1CCC2(CC1)OCc1ccccc12` [Example 46], the Ki was 0.024 µM.

As to `O=C(CNC(c1ccccc1)c1ccc(Cl)cc1)N1CCC2(CC1)OCc1ccccc12` (racemic) [Example 2, (RS)—N-[(4-Chlorophenyl)(phenyl)methyl]-2-oxo-2-(1′H,3H-spiro[2-benzofuran-1,4′-piperidin]-1′-yl)ethanamine], the Ki was 0.00912 µM.

As to `O=C1OC2(CCN(C(=O)CNC(c3ccccc3)c3ccccc3)CC2)c2ccccc21` [Example 92, 1′-[N-(Diphenylmethyl)glycyl]-3H-spiro[2-benzofuran-1,4′-piperidin]-3-one], the Ki was 0.0427 µM. Turning to `O=C(CN[C@@H](C(=O)N1CC(O)C1)c1ccccc1)N1CCC2(CC1)OCc1ccccc12` [Example 71, 1-[(2R)-2-{[2-Oxo-2-(1′H,3H-spiro[2-benzofuran-1,4′-piperidin]-1′-yl)ethyl]amino}-2-phenylacetyl]azetidin-3-ol], the Ki is 0.0794 µM. As for `O=C(CNC(c1ccccc1)c1ccccn1)N1CCC2(CC1)OCc1ccccc12` (racemic) [Example 27, (RS)-2-Oxo-N-[phenyl(pyridin-2-yl)methyl]-2-(1′H,3H-spiro[2-benzofuran-1,4′-piperidin]-1′-yl)ethanamine], the figure is 0.0182 µM; as for `O=C(CNC(c1ccccc1)c1cccc(C(F)(F)F)c1)N1CCC2(CC1)OCc1ccccc12` (racemic) [Example 12, (RS)-2-Oxo-N-{phenyl[3-(trifluoromethyl)phenyl]methyl}-2-(1′H,3H-spiro[2-benzofuran-1,4′-piperidin]-1′-yl)ethanamine], 0.0302 µM. As for `Cc1cccc(C(NCC(=O)N2CCC3(CC2)OCc2ccccc23)c2ccccc2)c1` (racemic) [Example 34, (RS)—N-[(3-Methylphenyl)(phenyl)methyl]-2-oxo-2-(1′H,3H-spiro[2-benzofuran-1,4′-piperidin]-1′-yl)ethanamine], the figure is 0.0186 µM.
